Data taken from PubChem BioAssay AID504828 (Johns Hopkins Ion Channel Center, 2011).

Each molecule was assayed against Inward rectifier potassium channel 2 (Mus musculus) (UniProt P35561) (assay: Kir2.1 current blockers by manual electrophysiology, SAR follow-up, orthogonal assay, manual whole-cell patch clamp, extended SAR, set 1 (AID 504828)). Conditions: Kir2.1-expressing cells, -100 mV;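 active = compounds lowering Kir2.1 channel current, measured at -100 mV, at one or more tested doses; inactive = the rest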.
Chain of Inward rectifier potassium channel 2 (Mus musculus) (P35561 whole entry, looked up): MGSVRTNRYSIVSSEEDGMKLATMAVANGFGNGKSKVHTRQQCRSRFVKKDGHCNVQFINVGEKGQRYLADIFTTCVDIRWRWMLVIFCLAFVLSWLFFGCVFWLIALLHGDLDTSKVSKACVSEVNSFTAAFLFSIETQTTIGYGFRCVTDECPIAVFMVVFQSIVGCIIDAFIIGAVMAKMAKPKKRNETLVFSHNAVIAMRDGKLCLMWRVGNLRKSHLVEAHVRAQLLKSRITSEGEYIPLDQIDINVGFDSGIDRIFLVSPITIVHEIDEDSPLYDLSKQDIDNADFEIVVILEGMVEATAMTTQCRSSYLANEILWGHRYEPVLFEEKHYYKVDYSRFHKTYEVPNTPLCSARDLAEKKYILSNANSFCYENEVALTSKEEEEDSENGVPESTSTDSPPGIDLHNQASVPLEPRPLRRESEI

IC50, active:
O=S(=O)(c1ccc(F)cc1)N1CCCc2ccccc21 11.1 µM
Cc1ccc2nc(NCc3ccccc3)[nH]c2c1 16.6 µM
Cc1ccc(C)c(OCCCNCc2ccccc2)c1 5.94 µM
Cc1noc(C)c1COC(=O)CCN1c2ccccc2Sc2ccccc21 3.21 µM
CC(O)CNCCCOc1cccc(Oc2ccccc2)c1 (stereo unspecified) 4.12 µM
CC(NS(=O)(=O)c1ccc(Br)cc1)c1ccccc1 (stereo unspecified) 8.82 µM
